Where “and” joins values, the source holds several entries; their conditions need not be identical. Identical values can stand only once.
Biological target: T1, N-terminally GST-tagged human full length recombinant Mps-1 kinase (Homo sapiens, UniProt P33981)
T1 construct: N-terminally GST-tagged human full length recombinant Mps-1 kinase; purchased Invitrogen, Karslruhe, Germany PV4071
T1 sequence (P33981 1-857): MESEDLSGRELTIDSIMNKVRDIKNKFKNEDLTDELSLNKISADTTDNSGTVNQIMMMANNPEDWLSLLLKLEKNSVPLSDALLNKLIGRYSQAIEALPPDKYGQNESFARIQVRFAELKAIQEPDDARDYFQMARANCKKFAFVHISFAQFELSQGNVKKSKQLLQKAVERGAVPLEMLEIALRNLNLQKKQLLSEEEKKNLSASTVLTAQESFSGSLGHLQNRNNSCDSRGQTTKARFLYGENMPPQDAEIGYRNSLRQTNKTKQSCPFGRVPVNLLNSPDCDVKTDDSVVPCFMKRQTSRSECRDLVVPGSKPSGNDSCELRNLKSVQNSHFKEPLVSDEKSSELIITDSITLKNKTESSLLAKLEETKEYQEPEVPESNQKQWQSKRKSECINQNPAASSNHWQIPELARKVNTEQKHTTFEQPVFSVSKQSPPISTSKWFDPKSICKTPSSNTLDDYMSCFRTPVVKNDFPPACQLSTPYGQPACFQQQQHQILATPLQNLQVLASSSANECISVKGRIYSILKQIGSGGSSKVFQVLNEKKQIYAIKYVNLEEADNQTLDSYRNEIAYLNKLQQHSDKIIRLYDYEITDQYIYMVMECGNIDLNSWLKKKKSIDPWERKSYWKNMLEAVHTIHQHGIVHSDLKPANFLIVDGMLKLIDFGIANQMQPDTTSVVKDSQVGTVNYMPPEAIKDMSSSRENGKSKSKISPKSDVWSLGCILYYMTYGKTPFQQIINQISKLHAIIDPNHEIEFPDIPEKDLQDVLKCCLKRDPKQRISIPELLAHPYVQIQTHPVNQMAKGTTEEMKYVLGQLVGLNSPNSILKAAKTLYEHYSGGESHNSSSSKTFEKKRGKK
Test: Mps-1 kinase assay (TR-FRET)
Assay type: biochemical
Details: Mps1 IC50 [nM], 10 μM ATP, 1 μM peptide substrate, 60 min at 22° C.
Outline: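 Read-out: TR-FRET from Europium-labelled anti-phospho(Ser/Thr) antibody to SA-XLent after 1 h detection incubation at 22° C. Inhibition of kinase activity measured.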

With `Cc1cc(-c2cnc3c(NCCC(F)(F)F)cc(Nc4ccc(F)c(F)c4)nn23)ccc1C(=O)NC1CC1` [Example 373, N-cyclopropyl-4-{6-[(3,4-difluorophenyl)amino]-8-[(3,3,3-trifluoropropyl)amino]imidazo[1,2-b]pyridazin-3-yl}-2-methylbenzamide] the IC50 was 0.2 nM.
In the case of `COc1cccc(Sc2cc(NCC(C)(C)O)c3ncc(-c4ccc(C(=O)NC5CC5)c(C)c4)n3n2)c1` [Example 61B, N-cyclopropyl-4-{8-[(2-hydroxy-2-methylpropyl)amino]-6-[(3-methoxyphenyl)sulfanyl]imidazo[1,2-b]pyridazin-3-yl}-2-methylbenzamide], the IC50 is reported as 0.3 nM.
Compound `Cc1cc(-c2cnc3c(NCCC(F)(F)F)cc(SCCN4CCOCC4)nn23)ccc1C(=O)NC1CC1` [Example 215, N-cyclopropyl-2-methyl-4-(6-{[2-(morpholin-4-yl)ethyl]sulfanyl}-8-[(3,3,3-trifluoropropyl)amino]imidazo[1,2-b]pyridazin-3-yl)benzamide] has an IC50 of 1.7 nM.
`Cc1cc(-c2cnc3c(NCCN4CCOCC4)cc(Oc4cncc(F)c4)nn23)ccc1C(=O)NC1CC1` [Example 541, N-cyclopropyl-4-(6-[(5-fluoro-pyridin-3-yl)oxy]-8-{[2-(morpholin-4-yl)ethyl]amino}imidazo[1,2-b]pyridazin-3-yl)-2-methylbenzamide] showed an IC50 of 0.4 nM.
Compound `CNC(=O)c1ccc(-c2cnc3c(NCC4CCOCC4)cc(Oc4ccccc4C)nn23)cc1C` [Example 568, N,2-dimethyl-4-{6-(2-methylphenoxy)-8-[(tetrahydro-2H-pyran-4-ylmethyl)amino]imidazo[1,2-b]pyridazin-3-yl}benzamide] has an IC50 of under 1 nM.
With `Cc1cc(-c2cnc3c(NCCC(F)(F)F)cc(Nc4ccc(F)cc4O)nn23)ccc1C(=O)NC1CC1` [Example 396, N-cyclopropyl-4-{6-[(4-fluoro-2-hydroxyphenyl)amino]-8-[(3,3,3-trifluoropropyl)amino]imidazo[1,2-b]pyridazin-3-yl}-2-methylbenzamide] the IC50 was 0.1 nM and 0.3 nM.
For `Cc1cc(-c2cnc3c(NCC(C)(C)O)cc(Oc4ccc(F)c(Cl)c4)nn23)ccc1C(=O)NC1CC1` [Example 91, 4-{6-(3-Chloro-4-fluorophenoxy)-8-[(2-hydroxy-2-methylpropyl)amino]imidazo[1,2-b]pyridazin-3-yl}-N-cyclopropyl-2-methylbenzamide], the IC50 was 0.5 nM.
Compound `Cc1cc(-c2cnc3c(NCC(C)(C)O)cc(Nc4ccccc4)nn23)ccc1C(=O)NC1CC1` [Example 306, 4-{6-anilino-8-[(2-hydroxy-2-methylpropyl)amino]imidazo[1,2-b]pyridazin-3-yl}-N-cyclopropyl-2-methylbenzamide] has an IC50 of 0.6 nM.
`Cc1cc(-c2cnc3c(NCC4CCS(=O)(=O)CC4)cc(Oc4ccc(F)cc4)nn23)ccc1C(=O)NC1CC1` [Example 295A, N-cyclopropyl-4-[8-{[(1,1-dioxidotetrahydro-2H-thiopyran-4-yl)methyl]amino}-6-(4-fluorophenoxy)imidazo[1,2-b]pyridazin-3-yl]-2-methylbenzamide] was tested, and the IC50 was 0.4 nM.
In the case of `CSc1cc(NCCC(F)(F)F)c2ncc(-c3ccc(C(=O)NC4CC4)c(C)c3)n2n1` [Example 203, N-cyclopropyl-2-methyl-4-{6-(methylsulfanyl)-8-[(3,3,3-trifluoropropyl)amino]imidazo[1,2-b]pyridazin-3-yl}benzamide], the IC50 is reported as 1.4 nM.
For `Cc1cc(-c2cnc3c(NCC(C)(C)O)cc(Oc4ccnn4C)nn23)ccc1C(=O)NC1CC1` [Example 319, N-cyclopropyl-4-{8-[(2-hydroxy-2-methylpropyl)amino]-6-[(1-methyl-1H-pyrazol-5-yl)oxy]imidazo[1,2-b]pyridazin-3-yl}-2-methylbenzamide], the IC50 was 121 nM.
`CC(C)CNc1cc(-c2cncc(C#N)c2)nn2c(-c3ccc(C(=O)NC4CC4)cc3)cnc12` [Example 147, 4-{6-(5-Cyanopyridin-3-yl)-8-[(2-methylpropyl)amino]imidazo[1,2-b]pyridazin-3-yl}-N-cyclopropylbenzamide] showed an IC50 of 2.2 nM.
`Cc1cc(-c2cnc3c(NCC(C)(C)N)cc(-c4ccc(F)cc4)nn23)ccc1C(=O)NC1CC1` [Example 57, 4-{8-[(2-Amino-2-methylpropyl)amino]-6-(4-fluorophenyl)imidazo[1,2-b]pyridazin-3-yl}-N-cyclopropyl-2-methylbenzamide] was tested, and the IC50 was 4.4 nM.
Compound `Cc1ccc(Sc2cc(NCCC(F)(F)F)c3ncc(-c4ccc(C(=O)NC5CC5)c(C)c4)n3n2)c(F)c1` [Example 362, N-cyclopropyl-4-{6-[(2-fluoro-4-methylphenyl)sulfanyl]-8-[(3,3,3-trifluoropropyl)amino]imidazo[1,2-b]pyridazin-3-yl}-2-methylbenzamide] has an IC50 of 0.2 nM.
With `Cc1cc(-c2cnc3c(NCC(C)(C)O)cc(Sc4ncc[nH]4)nn23)ccc1C(=O)NC1CC1` [Example 318, N-cyclopropyl-4-{8-[(2-hydroxy-2-methylpropyl)amino]-6-(1H-imidazol-2-ylsulfanyl)imidazo[1,2-b]pyridazin-3-yl}-2-methylbenzamide] the IC50 was 64.3 nM.
Work on `Cc1cc(-c2cnc3c(NCCN(C)C)cc(Oc4ccc(Cl)cc4)nn23)ccc1C(=O)NC1CC1` [Example 523, 4-[6-(4-chlorophenoxy)-8-{[2-(dimethylamino)ethyl]amino}imidazo[1,2-b]pyridazin-3-yl]-N-cyclopropyl-2-methylbenzamide] yielded an IC50 of 0.7 nM.
Compound `Cc1cc(-c2cnc3c(NCC(O)CO)cc(Oc4cccc(F)c4)nn23)ccc1C(=O)NC1CC1` (centres unmarked) [Example 491, N-cyclopropyl-4-{8-[(2,3-dihydroxypropyl)amino]-6-(3-fluorophenoxy)imidazo [1,2-b]pyridazin-3-yl}-2-methylbenzamide] has an IC50 of 0.1 nM.
For `COc1cc(C(=O)NC2CC2)ccc1-c1cnc2c(NCC(C)(C)O)cc(-c3ccc(F)cc3)nn12` [Example 49, N-cyclopropyl-4-{6-(4-fluorophenyl)-8-[(2-hydroxy-2-methylpropyl)amino]imidazo[1,2-b]pyridazin-3-yl}-3-methoxybenzamide], the IC50 was 11.9 nM.
With `Cc1cc(F)cc(Oc2cc(NCCCC(F)(F)F)c3ncc(-c4ccc(C(=O)NC5CC5)c(C)c4)n3n2)c1` [Example 452, N-cyclopropyl-4-{6-(3-fluoro-5-methylphenoxy)-8-[(4,4,4-trifluorobutyl)amino]imidazo[1,2-b]pyridazin-3-yl}-2-methylbenzamide] the IC50 was 0.8 nM.
`Cc1cc(-c2cnc3c(NCCC(F)(F)F)cc(Nc4ccc(F)nc4)nn23)ccc1C(=O)NC1CC1` [Example 440, N-cyclopropyl-4-{6-[(6-fluoropyridin-3-yl)-amino]-8-[(3,3,3-trifluoropropyl)amino]imidazo[1,2-b]pyridazin-3-yl}-2-methylbenzamide] showed an IC50 of 0.1 nM.
`Cc1cc(-c2cnc3c(NCC4(C)CCCO4)cc(-c4ccncc4)nn23)ccc1C(=O)NC1CC1` (racemic) [Example 30, (RS)—N-cyclopropyl-2-methyl-4-[8-{[(2-methyltetrahydrofuran-2-yl)methyl]amino}-6-(pyridin-4-yl)imidazo[1,2-b]pyridazin-3-yl]benzamide] gave an IC50 of 2.1 nM.
Work on `Cc1cc(-c2cnc3c(NCC(C)(C)O)cc(Oc4cccc5ncccc45)nn23)ccc1C(=O)NC1CC1` [Example 167, N-cyclopropyl-4-{8-[(2-hydroxy-2-methylpropyl)amino]-6-(quinolin-5-yloxy)imidazo[1,2-b]pyridazin-3-yl}-2-methylbenzamide] yielded an IC50 of 2.3 nM.
Work on `CC(C)CNc1cc(-c2ccnc3ccccc23)nn2c(-c3ccc(C(=O)NC4CC4)cc3)cnc12` [Example 112, N-cyclopropyl-4-{8-[(2-methylpropyl)amino]-6-(quinolin-4-yl)imidazol [1,2-b]pyridazin-3-yl} benzamide] yielded an IC50 of 5.1 nM.
In the case of `Cc1cc(F)cc(Nc2cc(NCC(C)(C)O)c3ncc(-c4ccc(C(=O)NC5CC5)c(C)c4)n3n2)c1` [Example 394, N-cyclopropyl-4-{6-[(3-fluoro-5-methylphenyl)amino]-8-[(2-hydroxy-2-methylpropyl)amino]imidazo[1,2-b]pyridazin-3-yl}-2-methylbenzamide], the IC50 is reported as 0.2 nM.
Work on `CC(C)CNc1cc(-c2ccccc2O)nn2c(-c3ccc(C(=O)NC4CC4)cc3)cnc12` [Example 139, N-cyclopropyl-4-{6-(2-hydroxyphenyl)-8-[(2-methylpropyl)amino]imidazo[1,2-b]pyridazin-3-yl}benzamide] yielded an IC50 of 3.7 nM.
`Cc1cc(-c2cnc3c(NCC(C)(C)O)cc(Sc4ccncc4)nn23)ccc1C(=O)NC1CC1` [Example 333, N-cyclopropl-4-{8-[(2-hydroxy-2-methylpropyl)amino]-6-(pyridin-4-yl-sulfanyl)imidazo[1,2-b]pyridazin-3-yl}-2-methyl-benzamide] was tested, and the IC50 was 9.5 nM.

Reference: US9255100B2 (BAYER INTELLECTUAL PROPERTY GMBH, priority 2010, dated 2016)
